The source of these data is ChEMBL document CHEMBL1926608, “Design, synthesis and in vitro antitumour activity of new heteroaryl ethylenes” (2012).

What all share (type): functional
The test system of assay [1] is A549. Nature of the assay: Growth inhibition of human A549 cells after 72 hrs by MTT assay. The note with it: A549, 72 h. (In general: Tetrazolium dyes change colour on reduction, which living cells bring about.)
Assay [2] deals with A549. Kind of assay: Cytotoxicity against human A549 cells after 72 hrs by MTT assay. The note with it: A549, 72 h, read-out: pLC50 (the source's name) (converted).
In assay [3] the test system is NCI-H226. Nature of the assay: Growth inhibition of human NCI-H226 cells after 72 hrs by MTT assay. Conditions: NCI-H226, 72 h.
Assay [4] has as its system NCI-H226. Kind of assay: Cytotoxicity against human NCI-H226 cells after 72 hrs by MTT assay. Conditions: NCI-H226, 72 h.

For orientation: GI50 means the concentration at which growth is held to half of that of the control. Low readings indicate more potent growth inhibition, high ones less potent growth inhibition. One may read the LC50 as the concentration that kills 50% of the test population.

As to `CN(C)c1ccc(/C=C/c2ccc3ccccc3[n+]2C)cc1`, the figures for the GI50 in assay [1] and in assay [3] were 1.55 µM and 0.631 µM, respectively. For the same compound, the CC50 in assay [2] is 70.8 µM.
For `CN(C)c1ccc(/C=C/c2cc[n+](C)cc2)cc1`, the results for the GI50 in assay [1] and in assay [3] were 1.58 µM and 10 µM, respectively.
Regarding `C[n+]1c(/C=C/c2ccc(-c3ccccc3)s2)ccc2ccccc21`, the GI50 is 2 µM in assay [1] and 1.45 µM in assay [3]. The same compound showed an LC50 in assay [4] of 38 µM.
In the case of `CCCCN(CCCC)c1ccc(-c2ccc(/C=C/c3ccc4ccccc4[n+]3C)s2)s1`, the GI50 in assay [1] was 0.01 µM; in assay [3], 0.0457 µM. Further, in assay [4], the LC50 was 10 µM.
Regarding `C[n+]1c(/C=C/c2ccc(N(c3ccccc3)c3ccccc3)cc2)cccc1/C=C/c1ccc(N(c2ccccc2)c2ccccc2)cc1`, the concentration for 50% growth inhibition (GI50) is 3.16 µM in assay [1] and 2 µM in assay [3]. For the same compound, in assay [2], the CC50 is 39.8 µM. In assay [4], the LC50 was 33.1 µM.
In the case of `CCCCN(CCCC)c1ccc(-c2ccc(/C=C/c3cccc(/C=C/c4ccc(-c5ccc(N(CCCC)CCCC)s5)s4)[n+]3C)s2)s1`, the GI50 in assay [1] is 4.79 µM; in assay [3] it was 1 µM.
For `CN(C)c1ccc(/C=C(\C#N)c2cccc[n+]2C)cc1`, in that order: 3.8 µM and 19.5 µM.
As for `Cn1cccc1/C=C/c1cccc[n+]1C`, the GI50 in assay [1] is 22.9 µM; in assay [3] it was 100 µM.
For `Cn1cccc1/C=C/c1cc[n+](C)cc1`, in that order: 1.66 µM and 100 µM.
On to `CN(C)c1ccc(/C=C/c2cccc(/C=C/c3ccc(N(C)C)cc3)[n+]2C)cc1`, for which the values for the GI50 in assay [1] and in assay [3] were 0.372 µM and 0.0447 µM, respectively. Further, in assay [2], the CC50 is 13.2 µM. In addition, in assay [4], the LC50 is 13.8 µM.
